The series in a line: Preliminary solubility trials (stability of carglumic acid solutions with NaOH, phosphate or HCl). Format: physicochemical. The text has this: Preliminary solubility trials have been performed using carglumic acid solutions buffered at pH from 5.0 to 5.7 with NaOH (0.5 M) or phosphate; the test were not successful since the solutions were not stable and gave an unknown degradation product (with molecular ion at 159 [m+H]+ detected in HPLC-mass-spectrometry) not present in the solution of carglumic acid in water.

In US11103474B2, “Pharmaceutical parenteral formulation containing carglumic acid” (RECORDATI INDUSTRIA CHIMICA E FARMACEUTICA S.P.A., priority 2016, dated 2021) one finds stability of solution data, which are given here for one compound.

On to `NC(=O)N[C@@H](CCC(=O)O)C(=O)O` [carglumic acid, Carglumic acid], for which the stability of solution entry is listed as “not stable” (buffered at pH from 5.0 to 5.7 with NaOH (0.5 M) or phosphate, unknown degradation product formed) and “did not result stable” (in HCl 0.5 M, up to 24 hours, two known impurities above the accepted limits).
